The source of these data is patent publication US7803554B2, “Detection of binding factors with fluorescence polarization” (priority 2000, dated 2010).

The test system of data set [1] is mouse monoclonal antibody 8E11. Kind of data set: CE/LIF binding stoichiometry of TMR-BPDE oligonucleotides with antibody. To be noted: 24 nM oligonucleotide. As to the method:
The separation was carried out at room temperature with a separation voltage of 15 kV. The running buffer were either 1× tris-glycine (25 mM Tris, 192 mM glycine, pH 8.3) or 0.5× tris-glycine (12.5 mM tris and 96 mM glycine, pH 8.3). The capillary was washed approximately every 3 injections with 0.02 M NaOH electrophoretically at 15 kV for 7 min followed by electrophoresis using water and the running buffer for 7 min each. All capillary electrophoresis data were analyzed using Igor Pro software (version 3.1, WaveMetrics Inc., Lake Oswego, Oreg.).
Complex formation of TMR-labeled BPDE-DNA adducts and antibody: TMR-BPDE-16-mer and TMR-BPDE-90-mer samples were diluted to appropriate concentrations in running buffer (tris-glycine, pH 8.3). The double stranded BPDE-90-mer was denatured by heating at 95° C. for 5 min in a heating block. It was then placed on ice to prevent reannealing. After cooling, the samples were briefly centrifuged in a microcentrifuge (Z233M, Hermle) to collect condensation from the side of the tube, then gently mixed to ensure a homogenous solution. TMR-BPDE-16-mer was synthesized as a single-stranded oligonucleotide. […] After addition of antibody to the BPDE-oligonucleotide solutions, the samples were gently vortexed to ensure complete mixing and incubated at the room temperature for 5-10 min, then analyzed by CE/LIF. […]

The next data set concerns the target SSB (Escherichia coli, UniProt P0AGE0). To be noted: fluorescence quenching methods; Molineux 1975, Krauss 1981; cited from earlier work.
Data set [2] relates to mouse monoclonal antibody 8E11. As to the kind of experiment: CE/LIF competitive binding of unlabeled BPDE-16-mer and TMR-BPDE-16-mer to antibody. As to conditions: 9.6 nM 16mer*, 33 nM antibody. The method, then: Simultaneous binding of two BPDE-DNA adducts to the antibody: Both TMR-labeled and unlabeled BPDE-adducts were allowed to bind with the antibody. The freshly diluted BPDE-16-mer (16mer) and TMR-BPDE-16-mer (16mer*) solutions were mixed together before addition of the antibody. Concentrations of the TMR-BPDE-16-mer and the antibody were kept constant at 9.6 nM and 33.3 nM, respectively, and the unlabeled BPDE-16-mer was varied from 2.5 nM to […]. The sample mixtures were incubated for 5 min at room temperature, then analyzed by CE/LIF. Similarly, the antibody was added to mixtures of the TMR-BPDE-16mer and BPDE-90mer to study the competitive binding and ligand exchange.
The relative changes of the primary and secondary complexes with varying concentrations of unlabeled 16mer when it is incubated with 9.6 nM TMR-labeled 16mer* and 33 nM (5 μg/mL) antibody were measured. When the concentration of the unlabeled 16mer is below 10 nM, the primary complex [Ab(16mer*)] dominates and its amount remains almost constant with increasing concentration of the unlabeled 16 mer up to 10 nM. The total ligand concentration (16mer* and 16mer) is lower compared with that of the antibody, and there are excess antibody binding sites available. Thus, no significant competition between the two ligands takes place. […]

Sequence of SSB (P0AGE0 2-178 limits assumed): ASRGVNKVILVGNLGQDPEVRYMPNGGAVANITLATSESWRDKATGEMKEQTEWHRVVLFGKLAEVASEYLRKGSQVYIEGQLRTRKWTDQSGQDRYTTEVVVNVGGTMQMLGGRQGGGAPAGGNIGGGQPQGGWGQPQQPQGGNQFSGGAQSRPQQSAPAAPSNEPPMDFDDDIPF

Turning to “16mer*: 5′-TMR-labeled 16-mer 5′-CCCATTATGCATAACC-3′ with a single BPDE adduct (single BPDE adduct, position not given here)”, the “share of total oligonucleotide present as secondary complex (1:2)” value in data set [1] (antibody 1 μg/mL (maximum)) is 50%. Moreover, the “share of total oligonucleotide present as primary complex (1:1) with the antibody” value in data set [1] (antibody 8-16 μg/mL (50-100 nM)) was 80-85%.
For the substance d(pT)8, at SSB, the “affinity of SSB” value is reported as “about 2×10^6 M^−1”.
For the substance d(pT)16, the “affinity of SSB” value at SSB is 1.4e+06 M⁻¹.
Regarding “unlabeled 16mer: unlabeled 16-mer 5′-CCCATTATGCATAACC-3′ with a BPDE adduct (chemistry not fully specified)”, in data set [2], the “competitor concentration at which secondary complexes reach a maximum” value is listed as 100 nM and the “competitor concentration resulting in disappearance of the primary Ab(16mer*) complex” value is “above 250 nM”.
